Usually melting point stands for the temperature, or range, at which the solid turns liquid. `O=CN1CCN(c2ccnc(Oc3ccccc3)n2)CC1` registered a melting point of 149 to 151 °C. For `NP(N)(=O)NC(=O)c1cccc([N+](=O)[O-])c1` the value was 168 to 172 °C. Compound `CCOC(=O)CCNc1nc2c(C)cc(C)cc2n1Cc1nc(C)ccc1O` gave a melting point of 180 °C. Then `CC(C)c1csc(COC(=O)NC(C(=O)NC(Cc2ccccc2)CC(O)C(Cc2ccccc2)NC(=O)OCc2cncs2)C(C)C)n1` (stereo not given), with 62 to 64 °C; and `COc1c(OCCCCCC(=O)N(CCO)C2CCCCC2)ccc2c1CN1CC(=O)NC1=N2`, with 208 to 209 °C. Then `CC(=O)OC12Oc3cc(C(C)C)ccc3C1(OC(C)=O)C(=O)c1ccccc12` (stereo not given), with 138 to 140 °C. On to `Cc1nc(-c2ccc(-c3cnc4[nH]c(=O)n(CCN5CCCC5=O)c4n3)cc2)n[nH]1`, for which the melting point lay within 315 to 316 °C.

In turn, `CCCc1c(OCCCSc2nc3ccc(C(=O)O)cc3[nH]2)ccc(C(C)=O)c1O` had a melting point of 106 to 108 °C. For `CC1(C)CN=C(NN=C(C=Cc2ccc(OC(F)(F)F)cc2)C=Cc2ccc(OC(F)(F)F)cc2)NC1` the value was 170 to 172 °C. `CC(C)n1cnc2c(N[C@H](CO)c3ccccc3)nc(Cl)nc21` displayed a melting point of 150 to 152 °C. Turning to `CC(C)(O)CCOc1ccc(/C=C/C(=O)O)c(Oc2ncc(C(F)(F)F)cc2Cl)c1`, the melting point fell in the range of 192 to 194 °C. For `COc1cccc(C(=O)c2ccc(OC)c(C(=O)O)c2)c1` the value was 132 °C. For `Cc1cc(-c2nc3c(Cl)cccc3c(=O)n2-c2ccc(Br)cc2)cc(C)c1OCCO` the value was 185 to 186 °C; for `COc1ncccc1-c1ccc(OC2SCC(O)C(O)C2O)c(Cl)n1` (stereo not given), 102 °C. For `CC1(C)COC(c2ccc(S)cc2)OC1` the value was 134 to 136 °C; for `COC(=O)c1c(Cc2ccc(S(=O)(=O)CCO)cc2)c(=O)c2ccc(Cl)cc2n1-c1ccccc1`, 172 to 174 °C; for `OC1CCc2c(F)cc(F)cc2C1` (stereo not given), 85 °C. Compound `CCOC(=O)c1cnc2cn[nH]c2c1Nc1ccsc1` displayed a melting point of 174 to 175 °C. Then `COC(=O)c1ccc(OCCCBr)cc1NC(=O)C=Cc1ccc(-c2ccccc2)cc1`, with 142 to 145 °C; and `Cc1ccc(C=CC(=O)O)cn1`, with 214 to 216 °C. For `Clc1cccc(N2CCN(CCCCOc3ccc4scnc4c3)CC2)c1Cl` the value was 93 to 94.5 °C; for `O=C1NC(=O)C(c2cc(Cl)ccc2S(=O)(=O)Cl)N1` (stereo not given), 211 to 212 °C; for `O=C(O)C(=O)c1ccsc1`, 63 °C.

Consider `CCc1cc(=O)n(-c2cc3[nH]c(=O)sc3cc2F)c(=O)n1C`, for which the melting point was > 250 °C.

With `Cc1cnc2c(=O)[nH]c3ccc(Cl)cc3n12`, the melting point is > 300 °C.

For the compound `CC(=NNc1ccccc1)c1ccc(N2CCN(c3c(C)nc(N)nc3N)CC2)cc1`, the melting point is 239 to 241 °C. Consider `NC(=O)c1cc2cc(C(O)(C(F)(F)F)C(F)(F)F)ccc2[nH]1`, for which the melting point lay in the range of 262 to 263 °C. Then `O=C(O)c1c(OCc2cccc(OCc3ccc4ccccc4n3)c2)cccc1C(F)(F)F`, with 184 to 185 °C; and `CC(=NO)c1ccc2c(c1)CCC2`, with 104 °C. For `CCOC(=O)N1CCC(=C2c3ccccc3CCc3cccnc32)CC1` the value was 106 to 107 °C; for `CC(=O)Nc1nnnn1CC(I)=C(I)I`, 178 to 185 °C.

For `COC(=O)c1nc(NC(=O)CCCOc2cccc(CN3CCCCC3)c2)n(C)n1`, the melting point lay within 108 to 110 °C. For `COc1cc2ncnc(NC3=CC(=O)C(N4CCOCC4)=CC3=O)c2cc1OC` the value was 249 to 250 °C; for `CC(=O)N[C@@H](C)COc1cc2oc(-c3ccc(OC[C@H]4CC4(F)F)c(F)c3)nc2cn1`, 181 °C; for `CN1CCN(c2nn3ccnc3c3c2CCCC3)CC1`, 79.5 °C. Then `CCOC1CCC2(C)C(=CCC3C4CCC(=O)C4(C)CCC32)C1` (stereo not given), with 146 to 147 °C. In turn, `O=C(Cn1cccc(NC(=O)OCc2ccccc2)c1=O)NC(Cc1ccccc1)C(=O)C(F)(F)F` (stereo not given) gave a melting point of 113 to 117 °C. Consider `CCNC(C)c1nc(CSCCNC(=C[N+](=O)[O-])NC)cs1` (stereo not given), for which the melting point lay in the range of 114 to 116 °C.

`COc1cc2c(cc1OC)C(c1cccc(Cl)c1)=NNC(C)C2` (stereo not given) displayed a melting point of 116 to 120 °C. For `Cc1cccc(C(=O)c2cc3c(ccc4ccccc43)oc2=O)c1` the value was 190 to 192 °C; for `CC(C)=Nc1c2c(nc3ccccc13)CCCC2`, 127 to 130 °C. The compound `CCOC(OCC)c1cc(NC(c2ccccc2)(c2ccccc2)c2ccccc2)c(F)c(CC2CC2)n1` gave a melting point of 120 to 121 °C. For `I[Si](c1ccccc1)(c1ccccc1)c1ccccc1` the value was 221 to 225 °C. For `CCOC(=O)CCCOc1cccc(Oc2nc(OC)cc(OC)n2)c1C=O` the value was 96 °C; for `O=C(CCCN1CCN(c2ccccn2)CC1)c1cccnc1`, 89 °C. Consider `[N-]=[N+]=NC(=O)c1csc(Cl)n1`, for which the melting point is > 250 °C. For `CCOC(=O)c1cnc2nc(C=CC(=O)O)c(OCC)cc2c1O` the value was > 280 °C; for `CCCn1c(=O)cc(S(=O)(=O)CCC)n(Cc2ccc(-c3ccccc3-c3nnn[nH]3)cc2)c1=O`, 128 to 135 °C. The compound `CN1CCN(Cc2ccc(-c3nc4cc([N+](=O)[O-])ccc4o3)s2)CC1` returned a melting point of 135 to 137 °C. Compound `COc1cncnc1N1CCN(CCCc2c[nH]c3ccc(Nc4cc(=O)c4=O)cc23)CC1C` (stereo not given) gave a melting point of 191 to 193 °C. Then `CC(C)(C)OC(=O)N1CCN(C(=O)c2cccs2)CC1`, with 76 °C; and `CCOC(=O)C(=O)Nc1coc2ccc(Cl)cc2c1=O`, with 161 to 162 °C; and `CC(C)c1nc(CN2C(=O)C3(COc4cc5c(cc43)OCO5)c3c(Cl)cccc32)no1` (stereo not given), with 165 to 167 °C.

For the compound `CCSN(C)C(=O)Nc1ccc(C)c(Cl)c1`, the melting point is < 50 °C.

Compound `Cc1ccccc1-c1c(-c2ccc(S(C)(=O)=O)cc2)oc2ccccc2c1=O` showed a melting point of 190 to 191 °C. Then `CCCC(OCCc1ccc(-c2ccc(Cl)cc2)cc1)C(=O)O` (stereo not given), with 89 to 90 °C. For `CN(C(=O)C(Cc1c[nH]c2ccccc12)NC(=O)OC(C)(C)C(Cl)(Cl)Cl)C(Cc1ccccc1)C(N)=O` (racemic) the value was 100 to 105 °C. For `CC(=O)c1ccc2c(c1)ncn2-c1cccc(-n2ccnc2)c1` the value was 205 to 206 °C; for `CC(C#N)(CO)NS(=O)(=O)Cc1ccccc1` (stereo not given), 153 to 155 °C. Turning to `COc1ccc(N2CCN(c3c(C)c(C)c4c(c3C)C(c3ccc(F)cc3)C(C)(C)O4)CC2)cc1` (stereo not given), the melting point was in the range of 139 to 141 °C. Then `Cc1ccc(C(=O)CCCC(C)C(=O)O)cc1` (stereo not given), with 50 to 50.5 °C. In turn, `COc1ccc(CN(CCN(C)CCNC(=O)NCCSCc2csc(NC(=N)N)n2)c2ccccn2)cc1` had a melting point of 84 °C. For `COc1cc2oc(=O)c(CCOS(C)(=O)=O)c(C)c2c(OC)c1OC` the value was 114 to 115 °C; for `CCN(C(=O)C(C)O)c1cn(-c2cccnc2)nc1Cl` (stereo not given), 137 to 138 °C. For `Cc1csc(N)c1S(N)(=O)=O` the value was 142 to 144 °C. Then `CC12CCC(C1)C(C)(C)C2(S)CCN` (stereo not given), with 42 to 43 °C; and `O=C(NCc1c[nH]c(=S)n1[C@H]1CCc2c(F)cc(F)cc2C1)c1ccccc1`, with 260 to 261 °C. The compound `COc1ccc2[nH]cc(CCN3CCC(c4ccc(C)cc4)CC3)c2c1` registered a melting point of 131 to 133 °C. As for `CC(=O)SCCNC(=O)[C@H](CS)NC(=O)C(C)C`, the melting point lay in the range of 117 to 120 °C. Then `Fc1cccc(F)c1-c1nccc(-c2ccc(-c3ccc(C(F)(F)F)cc3)cc2)n1`, with 141 to 142 °C; and `Cc1c(C)c2c(c(C)c1OCc1ccccc1)C(=O)CC(C)(COC(C)(C)C)O2` (stereo not given), with 51 to 62 °C; and `Cn1c(CCNC(=O)C(F)(F)F)cc2cccc(F)c21`, with 108 to 110 °C.

Regarding `CC(C)Nc1nc2cc(F)c(F)c(F)c2n1[C@@H]1O[C@H](C)[C@@H](O)[C@H]1O`, the melting point lay within 175 to 178 °C.

Compound `O=c1cc(-c2ccncc2)nc2n1CC(F)(F)CN2` displayed a melting point of 239 to 240 °C. Then `CCOC(=O)C1(C)OC(C)=C(O)C1=O` (stereo not given), with 89.2 to 89.5 °C. `Cn1ncc2c1-c1cc(Cl)ccc1OC2` came in with a melting point of 80.5 to 81 °C. Then `COc1cccc(CSCCNC(=O)c2c(OC)cccc2OC)c1`, with 41 to 43 °C; and `COC1CC(N2CCCC2)C(N(C)C(=O)COc2cccc(F)c2)CC1OC` (stereo not given), with 119 to 121 °C; and `CCOc1cc2ncc(C#N)c(Nc3ccc(Sc4nccn4C)c(Cl)c3)c2cc1OCC`, with 285 to 290 °C. As for `CC(C)(C#N)c1ccc(C(=O)C2CC2)cc1`, the melting point was 80 to 82 °C. Then `COc1nnc2n1C=Cc1cc(Cl)ccc1C2`, with 177 to 178 °C; and `CS(=O)(=O)c1ccc(-c2nn(Cc3ccc(F)cc3F)c(=O)cc2-c2ccc(Cl)cc2)cc1`, with 174 °C. For `Cn1nc(C(F)(F)F)c(C(O)=C(Br)n2ccc(-c3c(F)cccc3F)n2)c1Cl` the value was 123 to 125 °C. For `O=CC(CC(=O)O)NC(=O)C1CCCN2C(=O)CCC(NC(=O)CCc3ccccc3)C(=O)N12` (stereo not given) the value was 96 to 97 °C; for `Cc1ccc(C(=O)O)cc1OCc1ccccc1`, 159 to 161 °C; for `COCCOc1nn2c(-c3ccc(OC)cc3)nnc2c2ccccc12`, 174 to 176 °C. Compound `COc1cc2oc(=O)c(CCO)c(C)c2c(OC)c1OC` returned a melting point of 95 to 97 °C.

Turning to `O=c1[nH]c2c(c3nc(-c4ccccc4F)cn13)CNCC2`, the melting point is > 310 °C. For the compound `CCOCc1ccc2oc(C(=O)OCC)c(C)c2c1O`, the melting point was in the range of 97 to 98 °C. Then `O=C(/C=C/c1ccccc1)NC1CCN(CCC2CCOc3ccccc32)CC1` (stereo not given), with 168 to 170 °C.

(Values after a melting point compilation (Tetko et al.; mined from patent text by program, amines drawn as free bases though some values may be those of a salt).)
